Reference: patent US12070454B1, “Anesthetic nerve block and method” (PFOF LLC, priority 2022, dated 2024)
“And” between values parts separate entries of the source, which are not always exact repeats. Equal entries are not always repeated.

Legend:
[1] = cited from earlier work; for pH at which precipitates began to form: combined with NaOH
peripheral nerve [2] = details: cited from earlier work; for extension of standard peripheral nerve block: dexmedetomidine and clonidine, along with corticosteroids; for duration of peripheral nerve block, local anesthetic alone: no adjuvant or steroid; for life of peripheral nerve blocks and tissue infiltrates with adjuvants: with epinephrine, corticosteroids, α2-agonists
axolemma or node = system: axolemma or node
Description: It is this small amount of bupivacaine within the axolemma/node that results, primarily, in continuing neural blockade for periods of 120 hours or more.

[3] = assay type: physicochemical; details: for drug mass remaining in solution: 0.375 %; for drug mass precipitated: equal volumes of 8.4% NaHCO3 and 0.75% anesthetic solution, in vitro
From the text: Because of their elevated pKa's, ALALA drugs will form a crystalline precipitate 82 in an alkaline environment, both intra-axonally and extra-axonally (at the nodes of Ranvier 20 in A-delta fibers and generally around the axon in C-fibers). […] It is anticipated levo-bupivacaine will react similarly to levo-ropivacaine at 96.5% conversion to precipitate and crystallization when this drug becomes available.
NaHCO3 in Solution 1, when mixed with bupivacaine, levo-bupivacaine, or ropivacaine of Solution 2, will cause these drugs to immediately precipitate into crystals in this alkaline solution.
As discovered in our laboratory, 8.4% NaHCO3, when combined in vitro with bupivacaine or ropivacaine, results in precipitates of 93.5% and 96.5% respectively of the parent ALALA drug. […] Controlling the pH of the final combination of all these drugs and bases more efficiently controls the percentage of ALALA converted to precipitate and crystals and thereby the duration of the resulting nerve block.

target nerve = assay: ALALA-carbonate nerve block by injection of Solution 1 and Solution 2; assay type: in vivo, human; details: ALALA-carbonate precipitate in and around the nerve
From the text: As shown in FIGS. 17-23, the establishment of a 5-day peripheral nerve block involves the injection of two separate and sequential solutions to form the ALALA-compound precipitate and crystals in vivo around the nerves for specific nerve blocks. These solutions form the ALALA-compound precipitates and crystals. As the two solutions must be kept separate until injection over the specific nerve is accomplished, the solutions may then react to form the ALALA-compound precipitate and crystals in vivo. This separation of solutions by two different means: • 1. The sequential injection of two separate solutions through a single needle (FIGS. 17-19 and 22). • 2. The simultaneous injection of both solutions through a bifurcated needle where mixing occurs only at the needle tip(s) opposite the target nerve (FIGS. 20 and 21). These alkaline solutions are: • 1. […] Epinephrine 86 is present at a concentration of ˜3 mcg/ml, primarily as a standard vascular marker producing mild tachycardia if leakage into the vascular system occurs. When Solution 1 is given, a pulse-oximeter or EKG rhythm strip must be run to confirm no tachycardia for 2 minutes to ensure Solution 1 has no leakage into the vascular system with a resulting tachycardia greater than 15% above baseline pulse. […] Solution 2 is injected only if no increase impulse rate greater than 15% above baseline is determined within 2 minutes. • 3. […]

peripheral nerve [4] = assay type: in vivo, human
From the text: The mass of ALALA drug precipitated around the peripheral nerve or infiltrated tissue causes the intraneural metabolic mechanism transforming unionized to ionized ALALA drug to get overwhelmed. Thus, the normal transformation to ionized ALALA drug gets delayed to the point it takes 5 days or longer for all the ALALA drug to be metabolized and the block to wear off.

[5] = Test-tube combination of levobupivacaine with NaHCO3 versus molar prediction; assay type: physicochemical
From the text: In a test-tube with one mole of ropivacaine or levobupivacaine reacting with one mole of NaHCO3, a much higher percentage of ropivacaine or levobupivacaine is converted to the ALALA-bicarbonate precipitate than with racemic bupivacaine. Testing with levobupivacaine with NaHCO3 it was established that, levobupivacaine combines with NaHCO3 much more readily than molar predictions indicated. Where molar quantities predicted a 57.7% combination, an 83.9% combination occurred. Where another molar quantity predicted an 86.5% combination, a 94.0% combining of levobupivacaine and NaHCO3 occurred. Thus levo-enantiomers of the ALALA drugs are the preferred forms to be used to create these ALALA-bicarbonate precipitates.

[6] = Precipitation of local anesthetics with increasing pH (NaOH) or corticosteroids; assay type: physicochemical; details: alkaline solution
[7] = humans; cited from earlier work
[8] = cited from earlier work

| SMILES | pH at which precipitates began to form [1] [pH] | extension of standard peripheral nerve block (peripheral nerve [2]) [%] | duration of peripheral nerve block, local anesthetic alone (peripheral nerve [2]) | life of peripheral nerve blocks and tissue infiltrates with adjuvants (peripheral nerve [2]) [h] | drug mass remaining in solution [3] [%] | drug mass precipitated [3] | further results |
| --- | --- | --- | --- | --- | --- | --- | --- |
| CCCCN1CCCCC1C(=O)Nc1c(C)cccc1C (racemic) [bupivacaine, (RS)-1-butyl-N-(2,6-dimethylphenyl)piperidine-2-carboxamide] | 7.7 | ~50 | ~12 h and 16 h | ~24 | 7.47 | 93.53% and 93.5% and 92.53% | fraction penetrating the axolemma or node before precipitation (axolemma or node): approximately 11.9%; duration of neural blockade / analgesia (target nerve): ≥ 120 h; duration of block achieved (peripheral nerve [4]; 225 mg bupivacaine dose, single volunteer): 5 days; depot as percentage of the dose injected (peripheral nerve [4]; human, in vivo): 7.163% |
| CC1(C)O[C@@H]2C[C@H]3[C@@H]4CCC5=CC(=O)C=C[C@]5(C)[C@@]4(F)[C@@H](O)C[C@]3(C)[C@]2(C(=O)CO)O1 [Triamcinolone] |  |  |  |  |  |  | precipitate effect when combined with the ALALA drugs ([1]; Hwang et al.): no precipitate-effects |
| CCCCN1CCCC[C@H]1C(=O)Nc1c(C)cccc1C [levobupivacaine, (S)-1-butyl-N-(2,6-dimethylphenyl)-2-piperidinecarboxamide] |  |  | ~12 h | ~24 |  |  | combining of levobupivacaine and NaHCO3 that occurred ([5]; where another molar quantity predicted an 86.5% combination): 94.0%; combination of levobupivacaine and NaHCO3 that occurred ([5]; where molar quantities predicted a 57.7% combination): 83.9% |
| CCCN1CCCC[C@H]1C(=O)Nc1c(C)cccc1C [ropivacaine, (S)-1-propyl-N-(2,6-dimethylphenyl)piperidine-2-carboxamide] | 6.9 | ~50 | ~12 h and 16 h | ~24 | 3.50 | 96.5% |  |
| CCN(CC)CC(=O)Nc1c(C)cccc1C [lidocaine] |  |  |  |  |  |  | pH at which lidocaine precipitates [6]: ~11.5 pH |
| CCCCNc1ccc(C(=O)OCCN(C)C)cc1 [tetracaine] |  |  |  |  |  |  | dose at which anaphylactic reactions are known [7]: ≤ 10 mg; pKa relative to bupivacaine [8]: higher than bupivacaine |
